Earlier results, collected in US20210251893A1, “Compositions and Methods for Treating Ocular Diseases” (Ocular Therapeutix, Inc., priority 2020, published 2021).

What was measured:
FP prostanoid receptor = FP prostanoid receptor (Homo sapiens, UniProt P43088)
Sequence of FP prostanoid receptor (P43088 whole entry): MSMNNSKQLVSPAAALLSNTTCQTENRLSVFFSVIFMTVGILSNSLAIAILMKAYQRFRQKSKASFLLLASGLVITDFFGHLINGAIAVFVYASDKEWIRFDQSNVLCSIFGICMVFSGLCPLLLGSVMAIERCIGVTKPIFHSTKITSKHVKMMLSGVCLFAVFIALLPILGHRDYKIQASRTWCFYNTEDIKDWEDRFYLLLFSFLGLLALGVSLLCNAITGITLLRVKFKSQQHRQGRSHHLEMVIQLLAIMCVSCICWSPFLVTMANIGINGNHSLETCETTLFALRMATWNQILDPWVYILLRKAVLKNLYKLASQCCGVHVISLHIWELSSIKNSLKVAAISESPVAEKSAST

For CC(C)OC(=O)CCC/C=C\C[C@@H]1[C@@H](CC[C@@H](O)CCc2ccccc2)[C@H](O)C[C@@H]1O [Latanoprost], the “Solubility in aqueous solutions” value is listed as “relatively low solubility”.

For CC(C)OC(=O)CCC/C=C\C[C@@H]1[C@@H](/C=C/[C@@H](O)COc2cccc(C(F)(F)F)c2)[C@H](O)C[C@@H]1O [Travoprost], the “Affinity for the prostaglandin FP receptor” value (FP prostanoid receptor) is given as “high affinity”.

For O=C(O)CCC/C=C\C[C@@H]1[C@@H](/C=C/[C@@H](O)COc2cccc(C(F)(F)F)c2)[C@H](O)C[C@@H]1O [free acid of travoprost], the “Potency and selectivity for the FP prostanoid receptor” value (FP prostanoid receptor; compared to latanoprost) is listed as “higher potency and greater selectivity”.
